From patent US7365221B2, “Monoacylated betulin and dihydrobetulin derivatives, preparation thereof and use thereof” (priority 2002, dated 2008)
Where two headings read alike, the source gives them in different places.

How the values were obtained:
[1] = system: HIV-1 replication in H9 lymphocyte cells; details: Fujioka et al. 1994, cited from earlier work
HIV-1 (IIIB isolate) = assay type: cell-based; details: average of at least two experiments; cell line not stated; read-out: Anti-HIV Activity EC50
Description: (§1) The biological evaluation of HIV-1 inhibition was carried out as follows according to established protocols (Montefiori et al., Clin Microbiol. 26:231-235 (1988)). The human T-cell line, MT-2, was maintained in continuous culture with complete medium (RPMI 1640 with 10% fetal calf serum supplemented with L-glutamine at 5% CO2 and 37° C.). Test samples were first dissolved in dimethyl sulfoxide at a concentration of 10 mg/ml to generate master stocks with dilutions made into tissue culture media to generate working stocks. The following drug concentrations were routinely used for screening: 100, 20, 4 and 0.8 μg/ml. For agents found to be active, additional dilutions were prepared for subsequent testing so that an accurate EC50 value (defined below) could be determined. Test samples were prepared and to each sample well was added 90 μl of media containing MT-2 cells at 3×10^5 cells/ml and 45 μl of virus inoculum (HIV-1 IIIIB isolate) at a concentration necessary to result in 80% killing of the cell targets at 5 days post-infection (PI). Control wells containing virus and cells only (no drug) and cells only (no virus or drug) were also prepared. A second set of samples were prepared identical to the first and were added to cells under identical conditions without virus (mock infection) for toxicity determinations (IC50 defined below). In addition, AZT was also assayed during each experiment as a positive drug control. On day 5 PI, virus-induced cell killing was determined by measuring cell viability using the XTT method. Compound toxicity was determined by XTT using the mock-infected samples. If a test sample had suppressive capability and was not toxic, its effects were reported in the following terms: IC50, the concentration of test sample which was toxic to 50% of the mock-infected MT-2 cells; EC50, the concentration of the test sample that was able to suppress HIV replication by 50%; and the Therapeutic index (TI) the ratio of the IC50 to EC50.
(§2) Compounds of the present invention were assayed for anti-HIV activity according to the following assay procedures. The T cell line, H9, and the promonocytic cell line, U937, were maintained separately in continuous culture with complete medium (RPMI 1640 with 10% fetal calf serum) at 5% CO2 and 37° C. The cell lines were used in experiments only when in the logarithmic phase of growth, whereas uninfected peripheral blood mononuclear cells (PBMCs) were first stimulated with PHA (1 μg/mL) for three days. All cell targets were incubated with HIV-1 (IIIB isolate, 1×10^6 TCID50/mL) for one hour at 37° C. and 5% CO2. The cell lines and PBMCs were washed thoroughly to remove unadsorbed virions and resuspended at 4×10^5 cells/mL in complete medium or complete medium with 10% v/v interleukin 2 (IL-2), respectively. 100 μL aliquots were placed into wells of 96-well tissue culture plates containing an equal volume of test compounds (diluted in the appropriate culture medium). The toxicity of each compound was assessed by determining the number of compound-exposed uninfected cells that remained after five days at 37° C. and 5% CO2. A p24 antigen ELISA assay was used to determine the level of virus released in the medium of the HIV-infected cultures. […] The cutoff for the p24 ELISA assay was 12.5 pg/mL. p24 in the culture medium was quantitated against a standard curve containing known amounts of p24. The effective (EC50) and inhibitory (IC50) concentrations for anti-HIV activity and cytotoxicity, respectively, were determined.

uninfected cells = assay: Cytotoxicity on compound-exposed uninfected cells
Description: as §1, §2

[2] = H9 lymphocyte cells, read-out: EC50, inhibitory activity against HIV-1 replication
[3] = read-out: Cytotoxicity IC50, average of at least two experiments, uninfected cells

SMILES	EC50 (HIV-1 (IIIB isolate)) [µM]	IC50 (uninfected cells) [µM]	also measured
C=C(C)[C@@H]1CC[C@]2(C(=O)O)CC[C@]3(C)[C@H](CC[C@@H]4[C@@]5(C)CC[C@H](O)C(C)(C)[C@@H]5CC[C@]43C)[C@@H]12 [Betulinic acid, betulinic acid]	–	–	EC50 [1, 2]: 1.4 µM
C=C(C)[C@@H]1CC[C@]2(CO)CC[C@]3(C)[C@H](CC[C@@H]4[C@@]5(C)CC[C@H](OC(=O)CCCC(=O)OCC)C(C)(C)[C@@H]5CC[C@]43C)[C@@H]12 [Compound 18, 3-O-glutaryl betulin ethyl ester]	0.0169	–	IC50 (uninfected cells; [3]): 36.4 µM
C=C(C)[C@@H]1CC[C@]2(CO)CC[C@]3(C)[C@H](CC[C@@H]4[C@@]5(C)CC[C@H](OC(=O)CC(C)(C)CC(=O)O)C(C)(C)[C@@H]5CC[C@]43C)[C@@H]12 [Compound 8]	0.0044	28.9	–
C=C(C)[C@@H]1CC[C@]2(CO)CC[C@]3(C)[C@H](CC[C@@H]4[C@@]5(C)CC[C@H](OC(=O)CCCC(=O)O)C(C)(C)[C@@H]5CC[C@]43C)[C@@H]12 [Compound 10, 3-O-glutaryl betulin]	0.0662	–	IC50 (uninfected cells; [3]): 44.4 µM
CC(=O)[C@@H]1CC[C@]2(C(=O)O)CC[C@]3(C)[C@H](CC[C@@H]4[C@@]5(C)CC[C@H](O)C(C)(C)[C@@H]5CC[C@]43C)[C@@H]12 [platanic acid]	–	–	EC50 [1, 2]: 6.5 µM
C=C(C)[C@@H]1CC[C@]2(CO)CC[C@]3(C)[C@H](CC[C@@H]4[C@@]5(C)CC[C@H](OC(=O)COCC(=O)O)C(C)(C)[C@@H]5CC[C@]43C)[C@@H]12 [Compound 12]	0.0246	> 44.8	–
CC(C)[C@@H]1CC[C@]2(C(=O)O)CC[C@]3(C)C(CCC4[C@@]5(C)CC[C@H](O)C(C)(C)C5CC[C@]43C)C12 (stereo partly shown) [dihydrobetulinic acid]	–	–	EC50 ([1]; unit inferred, read-out: EC50, anti-HIV activity): 0.9 µM
C=C(C)[C@@H]1CC[C@]2(CO)CC[C@]3(C)[C@H](CC[C@@H]4[C@@]5(C)CC[C@H](OC(=O)CC(C)(C)C(=O)O)C(C)(C)[C@@H]5CC[C@]43C)[C@@H]12 [Compound 6]	0.0056	33.5	–
